Reference: patent US20250186458A1, “METHODS FOR THE TREATMENT OF MILD COGNITIVE IMPAIRMENT” (BIOVIE INC., priority 2022, published 2025)

Key:
[1] = system: patients with degenerative dementia; assay: Exit interviews with patients who completed NE3107-TRP-001; type: in vivo, human
Method: The exit interviews were conducted in the US with 11 adult patients/study partners who completed the Phase 2 trial of NE3107. Participants (patients and study partners) completed one 60-minute semi-structured interview via remote videoconference to facilitate face-to-face communication.
Each interview was divided into four parts: 1) elicitation of experience with degenerative dementia, 2) changes due to treatment with NE3107 and meaningfulness of those changes, 3) experience with NE3107 during the trial, and, if applicable, 4) study partner perceptions of the patient's changes during the trial and their trial experience.
Interviews took place via videoconference with a trained and experienced interviewers using a semi-structured interview guide. Participants were required to confirm that they signed the ICF for the exit interview, and provide permission to record the interview. The interviews lasted approximately 60 minutes. Open-ended questions were used to characterize the participant's experience with degenerative dementia. Three overarching topics were covered: 1) degenerative dementia signs and symptoms prior to the trial, 2) changes experienced during the trial, and 3) experience with the trial medication (NE3107). Interviewers noted spontaneously reported changes experienced during the trial and followed up with probes (as needed) to elicit the full range of changes experienced.
If both the patient and study partner participated, the patient was interviewed first with the study partner present. Following the patient interview, the study partner was interviewed without the patient present. Interviewers were instructed to direct the questions towards the patient and to remind the study partner that they would have an opportunity to add information or different perspectives at the end.
The coding and analysis of the interview transcripts followed principles in line with qualitative thematic (content) analysis (Braun et al. 2019), with additional features drawn from grounded theory (Bryant and Charmaz 2007; Strauss and Corbin 1998). This approach conforms to best practices in the field (Patrick et al. 2011). A saturation table was developed during the coding process and updated after each interview to ensure that the interviews provided sufficient quality and quantity of data to support the study goals. The focus of saturation was changes due to treatment.
During the interviews, patients were asked open-ended questions about any changes they experienced as a result of being treated with NE3107. Patients reported 14 unique change-related concepts related that were categorized as follows: cognitive (2 concepts), psychological (4 concepts), behavioral (2 concepts), physical (5 concepts), and no change (1 concept) (Table 3).

[2] = system: patients with cognitive impairment consistent with MCI or mild probable AD; assay: Open-label three-month study, cognitive tests (QDRS, MMSE, MoCA, ADAS-Cog12, Global Rating of Change); type: in vivo, human
Excerpt: Twenty-three patients, approximately equal numbers of men women, age 50-89 years, with cognitive impairment consistent with MCI or mild probable AD, but without other readily apparent major systemic disease were identified and received informed consent under the supervision of a central institution review board (IRB). Patients were qualified (screened) for the study by the following criteria, QDRS score ranging from 1.5-12.5, with a converted Clinical Dementia Rating (CDR) score of 0.5 (mild cognitive impairment) to 1 (mild dementia).
Prior to treatment (baseline) concomitant medications were stabilized and the patients were tested for cognitive function by the Quick Dementia Rating Scale (QDRS), Clinical Dementia Rating (CDR) score as estimated by the QDRS, a modified form of the Alzheimer's Disease Assessment Scale (ADAS-Cog12), the Mini-Mental State Examination (MMSE), and the Montreal Cognitive Assessment (MoCA) and by multi-modal brain MRIs to establish pre-treatment data for glutathione levels (as measured by magnetic resonance spectroscopy, MRS), dendritic density (as measured by diffusion tensor imaging, DTI-NODDI); arterial signal compared (as quantified by arterial spin labeling, ASL), functional connectivity of the nucleus basalis of Meynert (NBM) with both hippocampi as well as between both hippocampi as visualized by seed analysis of blood-oxygen level dependent (BOLD) imaging, and neurovascular coupling as visualized by BOLD compared to baseline. Baseline samples of the patients' blood and cerebral spinal fluid were collected for evaluation of AD and inflammation biomarkers.
Patients were treated with 20 mg 17α-ethynylandrost-5-ene-3β,7β,17β-triol oral capsules twice daily (BID for three months. All patients received 17α-ethynylandrost-5-ene-3β,7β,17β-triol; there were no placebo controls. Safety was monitored at clinical visits at 2 weeks, 4 weeks, 8 weeks, and completion. Routine hematology and clinical chemistry tests were performed at these visits and adverse events were monitored.
At the end of the treatment schedule the baseline assessments for cognition, neuroimaging and biomarkers were repeated.

[3] = overall population, three months
[4] = patients with a baseline MMSE score 20, three months

**Q.** What does the source list for `C#C[C@]1(O)CC[C@H]2[C@@H]3[C@@H](O)C=C4C[C@@H](O)CC[C@]4(C)[C@H]3CC[C@@]21C` [17α-ethynylandrost-5-ene-3β,7β,17β-triol, 17-ethynyl-10R, 13S-dimethyl 2,3,4,7, 8R, 9S, 10, 11, 12, 13, 14S, 15, 16, 17-hexadecahydro-1H-cyclopenta[a]phenanthrene-3R, 7R, 17S-triol]?
**A.** average number of positive changes per patient who improved ([1]; SD=1.86, range 1-7): 4.7; Change due to treatment reported by patients: No Change ([1]; exit interviews, N = 11): 2 n; patients who experienced no change ([1]; exit interviews, N = 11, figure in brackets after the count): 15.4; Change due to treatment reported by patients: No Change ([1]; exit interviews, N = 11, listed as NE3107): two; Cognitive Change from Interview (Memory or Clarity) ([1]; subject N-02-22): Improvement; Cognitive Change from Interview (Memory or Clarity) ([1]; subject N-03-22): Improvement; Cognitive Change from Interview (Memory or Clarity) ([1]; subject N-07-22): Improvement; Cognitive Change from Interview (Memory or Clarity) ([1]; subject N-10-22): No Change; Cognitive Change from Interview (Memory or Clarity) ([1]; subject N-14-22): No Change; Cognitive Change from Interview (Memory or Clarity) ([1]; subject N-16-22): Improvement; Cognitive Change from Interview (Memory or Clarity) ([1]; subject N-17-22): Improvement; Cognitive Change from Interview (Memory or Clarity) ([1]; subject N-18-22): Improvement; Cognitive Change from Interview (Memory or Clarity) ([1]; subject N-20-22): Improvement; Cognitive Change from Interview (Memory or Clarity) ([1]; subject N-22-22): Improvement; Cognitive Change from Interview (Memory or Clarity) ([1]; subject N-23-22): Improvement; QDRS, median decrease ([2]; 20 mg oral BID, three months vs baseline): 0.75 points; GSR scores improved, by patients ([2]; MCI patients, three months): 15 of 17; GSR scores improved, by study partners ([2]; MCI patients, three months): 11 of 17; GSR scores improved, by the clinician ([2]; MCI patients, three months): 16 of 17; Median QDRS behavioral improved ([2]; MCI patients, three months): one; Montreal Cognitive Assessment, improved ([2]; MCI patients, three months): 7 of 17; QDRS behavioral, improved ([2]; MCI patients, three months): 11 of 18; ADAS Cog 12, median score improved ([2]; MCI population, three months): 2.3 points; ADAS Cog 12 score, improved ([2]; MCI population, three months): 14 of 17; MMSE score, improved ([2]; MCI population, three months): 8 of 17; QDRS, patients improved ([2]; of patients evaluated, 20 mg oral BID, three months): 14 of 21; ADAS Cog 12, median score improved [2, 3]: 0.67 points; ADAS Cog 12 score, improved [2, 3]: 14 of 23; Global Rating of Change (GRS), clinician's score improved [2, 3]: 18 of 23; Global Rating of Change (GRS), patient's self-evaluation score improved [2, 3]: 18 of 23; Global Rating of Change (GRS), score from study partners improved [2, 3]: 13 of 22; MMSE score, improved [2, 3]: 9 of 23; Montreal Cognitive Assessment, patients improved [2, 3]: 9 of 23; improved (QDRS) [2, 4]: 12/17; median score improvement (QDRS) [2, 4]: one; Median QDRS cognition subscores improved (declined) ([2]; three months vs baseline): 0.5 points; QDRS cognition subscores, patients improved ([2]; three months vs baseline): 16/23
